Data: PMC9554870, “Mesoporous Silica Nanoparticles Improve Oral Delivery of Antitubercular Bicyclic Nitroimidazoles” (ACS Biomaterials Science & Engineering, 2021)
In brackets after ≈: the same amount, converted by molar mass.

Legend:
[1] = Aqueous (saturated water) solubility by LC-UV; assay type: physicochemical; details: deionized water, 37 °C, encapsulated samples 10% w/w, n = 3
Experimental: The solubility of pretomanid and MCC7433 was measured before and after loading into nanoparticles by using Shimadzu LCMS-2020 (Kyoto, Japan) with a variable-wavelength UV–visible detector. Briefly, 0.5 mg of compound equivalent particles (or 5 mg of 10 wt % compound loaded nanoparticles) were dispersed in 750 μL of deionized water. Samples were incubated at 37 °C on a rotator for 24 and 48 h. Samples were then centrifuged at 12 000 rpm for 20 min. The supernatant was collected and centrifuged for another round at 12 000 rpm, 20 min before being analyzed by LC-UV. The mobile phase was 0.05% formic acid in water (solvent A) and 0.05% formic acid in acetonitrile (solvent B). LC-MS condition: column Zorbax Eclipse XDB-Phenyl, 3.0 × 100 mm, 3.5 μm; column temperature: 40 °C; flow: 1 mL/min; injection volume: 5 μL; gradient timetable: 0.00 min, 5% B; 0.50 min, 5% B; 3.00 min, 100% B; 4.2 min, 100% B; 5.00 min, 5% B.

[2] = tested on: M. tuberculosis H37Rv strain; experiment: M. tuberculosis H37Rv minimum inhibition assay (resazurin reduction microplate assay); assay type: cell-based; details: Mycobacterium tuberculosis, lowest concentration with >90% inhibition of growth, free compounds predissolved in DMSO, nanoformulations dispersed in assay media, n = 4–6, read-out: MIC90%Inhib H37Rv
in vivo = details: male, CD-1, mouse, po, 20 mg/kg
[3] = parameters: method as in PMID 30562958; details: vorinostat encapsulated within pristine and functionalized MCM-41; cited from earlier work

| SMILES | solubility at 24 h [1] | MIC90 [2] | Tmax (in vivo) | half-life (in vivo) | fold improvement of solubility compared to the free drug [3] |
| --- | --- | --- | --- | --- | --- |
| O=c1c2nc([N+](=O)[O-])cn2ccn1Cc1ccc(OC(F)(F)F)cc1 [MCC7433] | 0.33 µg/mL (≈ 0.932 µM) | 0.25 to 0.5 µg/mL (≈ 0.706 to 1.41 µM) | 5.33 h | 193 min |  |
| NNC(=O)c1ccncc1 [isoniazid] |  | 0.04 µg/mL (≈ 0.292 µM) |  |  |  |
| O=[N+]([O-])c1cn2c(n1)OC[C@@H](OCc1ccc(OC(F)(F)F)cc1)C2 [pretomanid] | 15.5 µg/mL (≈ 43.1 µM) | 0.25 µg/mL (≈ 0.696 µM) |  |  |  |
| O=C(CCCCCCC(=O)Nc1ccccc1)NO [vorinostat] |  |  |  |  | 2.6–4.3 fold |
